Data taken from US20240050585A1, “B7-H4-TARGETED ANTIBODY-DRUG CONJUGATES FOR THE TREATMENT OF CANCER” (priority 2022, published 2024).

Key:
[1] = tested on: OV2423 patient derived ovarian cancer; experiment: Tumor growth response in OV2423 patient derived ovarian cancer xenograft mouse model; conditions: 4.54/0.150 mg/kg (antibody/payload) intravenously on day 1; Day 22; female BALB/c nude mice
Procedure: Female BALB/c nude mice were implanted subcutaneously with OV2423 patient derived ovarian cancer tumor fragments (˜2-3 mm^3 per mouse). Animals were randomized into treatment groups when tumor volumes were between 101-230 mm^3 (mean=155mm^3/group) (n=8/group). Vehicle, palivizumab isotype control conjugate (prepared as described in US Patent Application No. 2022/0233707A1, 4.54/0.150 mg/kg) and XMT-1660 (4.61/0.150 mg/kg, DAR 6) were dosed intravenously on day 1 (all doses are given by antibody/payload).

[2] = tested on: mBR9013 syngeneic breast cancer; experiment: Tumor growth response in mBR9013 syngeneic breast cancer mouse model; conditions: for TGI (tumor volume compared to vehicle control): day 15, female FVB/NJ mice
Procedure: Female FVB/NJ mice were implanted subcutaneously with mBR9013 tumor fragments (2-3 mm^3). Animals were randomized into treatment groups when tumor volumes were between 96-277 mm^3 (mean=148 mm^3/group) (n=8/group). […] Vehicle, isotype control conjugate and XMT-1660 were dosed intravenously.

In the case of palivizumab isotype control conjugate, the “TGI (tumor volume compared to vehicle control)” value [1] is reported as 24.8%, the “TGI (tumor volume compared to vehicle control)” value ([2]; 1.51/0.050 mg/kg (antibody/payload) intravenously on day 1) is reported as −7.91% and the “TGI (tumor volume compared to vehicle control)” value ([2]; 4.54/0.150 mg/kg (antibody/payload) intravenously on day 1) is reported as 32.02%. The “body weight loss or clinical observations” value ([2]; mouse, in vivo) was “No significant body weight loss or clinical observations”.
